{"source": "patent US8222210B2", "about": "(priority 2005, dated 2012)", "key": {"NK1 receptor [1]": {"tested_on": "NK1 receptor", "assay": "rabbit iris sphincter smooth muscle contraction", "format": "cell-based, New Zealand White rabbits", "conditions": "for biological activity relative to SP: rabbit iris sphincter muscle contraction", "from_the_text": "The biological assay chosen for this study was smooth muscle contraction with the rabbit iris sphincter. […] The conformational investigations involved ^1H-NMR analyses of a set of β-MeF-containing SP analogs, and a computational study of the effects that the introduction of a β-methyl group in the Phe^7 and/or Phe^8 residues has upon an energy minimized structure of the peptide, using the helical structure of SP derived by Young et al. (1994) as a starting point for the calculations.\nNew Zealand White rabbits were sacrificed by an i.v. overdose of sodium pentobarbital. The eyes were then enucleated and the iris/ciliary body was isolated. Central regions of the iris sphincter muscle was then isolated and the tissue bisected, producing two iris sphincter muscle preparations. The muscle strips were connected to a Grass force-displacement transducer with an initial loading force of 100 mg placed on the muscle. The tissue was then allowed to equilibrate for 60 minutes. Contractions were recorded by a Grass 7 Physiograph. Tissues were bathed at 37° C. in a 50 ml modified Ringer's solution (90 mM NaCl, 3.6 mM KCl, 20 mM HEPES (sodium salt), 0.6 mM MgCl, 7.5 mM Na2SO4, 1.4 mM Ca-gluconate, 20 mM NaHCO3, 0.6 mM MgSO4, 0.6 mM K2HPO4 and 26 mM glucose). The Ringer's solution was gassed with 95% air/5% CO2 (pH 7.4). […] To block potential proteolytic effects the following proteolysis inhibitors were added: 1 μM thiorphan, 1 μM phosphoramidon, 1 μM captopril, 3 μg/ml leupeptin, and 3 μg/ml chymostatin.\nTo evaluate the viability of each muscle preparation, maximum contraction was determined by a 10^−5 M dose of carbachol at the beginning and end of each experiment. Following the initial carbachol dose, tissues were washed by three exchanges of Ringer's solutions. Previous studies have shown that this is sufficient to remove carbachol from these solutions and to return the resting tension to normal values. Each peptide was then evaluated for its ability to induce sphincter muscle contraction, and dose-response curves (from 2×10^−11 to 7×10^−7 M) were determined. A minimum of four determinations were performed for each experimental condition. The dose response curves were fit by means of a nonlinear regression analysis program (Sigma Plot®, Jandel Scientific).\nTherefore, since the binding of SP to the NK1 and NK3 receptors in the rabbit iris differs by a factor of over 20, it is reasonable to assume that the contraction of the rabbit iris sphincter by βMeF-containing SP analogs primarily reflect the activation of the NK1 receptor."}, "[2]": {"tested_on": "full thickness skin punch wounds", "assay": "full thickness skin punch wound healing in a rat model (topical, AQUAPHOR)", "format": "in vivo, Sprague-Dawley rats", "conditions": "for percentage decrease of the wound area versus control wounds (paired T-test): SP p<0.025, selenocystamine at the 0.05 level; for % decrease in wound size (wound area day 6 compared with day 0): rat punch wound, topical once a day, SP 0.05%, selenocystamine 10 ug Se/ml", "protocol": "In addition, selenocystamine was tested as a potential wound treatment at the same time.\nTwenty-one male Sprague-Dawley rats weighing between 300-350 g were used in this study. The rats were housed in the temperature controlled vivarium at Texas Tech Health Science Center with a 12-hour alternating light cycle, and were provided water and rat chow ad libitum. Animals were allowed several days of adjustment upon arrival before the surgery to get rehydrated and familiar with the environment. The study protocol was approved by the Texas Tech University Health Sciences Center Animal Care and Use Committee which assured that the animals received humane care.\nOn the day of the surgery (day 0), the rats were weighed and anesthetized with 1 ml/kg intraperitoneal (IP) injection of the solution made up of 3 parts XYLAZINE® and 7 parts of KETASET®. The animals' backs and necks were shaved and prepared aseptically. Lack of response to tail pinch and absence of a righting reflex were used as indications that anesthesia was adequate. Supplemental anesthetic was administered IP as necessary to maintain an adequate anesthesia.\nA 7 mm-diameter punch (George Tiemann & Co.) was used to introduce the punch wound. The procedure was to fold the skin along the sagittal axis and put it down left or right side (rotate animal by animal) against a hard surface, then to thrust the punch through the two layers of skin. In this way, two identical punch wounds were obtained. Four wounds were introduced on each animal. The four wounds were arranged in two columns parallel to the sagittal axis and two rows parallel to the transverse axis.\nAfter the wound procedure, three different treatments were assigned to the wounds. […] The two under were assigned selenocystamine treatment. For the control wound, a drop of normal saline was applied followed by a layer of AQUAPHOR™ to cover the wound. For the SP wound, a drop of 0.05% (0.5 mg/ml) SP water solution was applied followed by a layer of 0.05% (0.5 mg/g) SP-AQUAPHOR™ to cover the wound. For the selenocystamine wounds, a drop of selenocystamine water solution (10 ug Se/ml) was applied to each wound followed by a layer of selenocystamine-AQUAPHOR™ ([…]) to cover the wound. Then gauze and tape were applied to secure the wound. The animals were held under warming lights and observed until they were fully recovered from the anesthesia and then were returned to the vivarium. All the treatment agents and placebo were stored in a refrigerator. Dressing changes and treatments were performed once a day until the animals were sacrificed on day 6. The assignments and dosage of the treatments were as described above.\nFollowing the surgery, the wounds were measured in two dimensions: sagittal and transverse. Photographs were taken using a PENTAX® ESPIO 928 camera and Kodak® ISO 200 color film. After the animals were sacrificed on day 6, the eschars covering the wounds were removed. Then the wounds were again measured in two dimensions, and photographs were taken.\nThe animals were sacrificed on day 6 after the surgery by euthanasia with […]® (Sodium Pentobarbital, 7.9% isopropanol, euthanasia solution). The entire wound plus a 1 mm margin of normal skin from each of the test and control wound sites on each animal was excised and preserved in buffered formalin.\nThe product obtained by multiplying the two measurements of each wound was referred to as the area of the wound. The percentage of the decrease of the wound area on day 6 compared with day 0 was used to evaluate the rate of healing. Since the exact time of wound healing was difficult to determine, day 6 was chosen.\nMean and standard deviations were determined on the difference of the percentage of the wound area decrease between each treatment and the control. Significant differences between treatments and the control were determined by paired T-test to see if the percentage of the decrease in wound area was greater for the treated wounds than for the control wound. […]"}, "NK1 receptor [3]": {"molecular_target": "NK1 receptor (Homo sapiens, UniProt P25103)", "sequence (P25103 whole entry, species assumed)": "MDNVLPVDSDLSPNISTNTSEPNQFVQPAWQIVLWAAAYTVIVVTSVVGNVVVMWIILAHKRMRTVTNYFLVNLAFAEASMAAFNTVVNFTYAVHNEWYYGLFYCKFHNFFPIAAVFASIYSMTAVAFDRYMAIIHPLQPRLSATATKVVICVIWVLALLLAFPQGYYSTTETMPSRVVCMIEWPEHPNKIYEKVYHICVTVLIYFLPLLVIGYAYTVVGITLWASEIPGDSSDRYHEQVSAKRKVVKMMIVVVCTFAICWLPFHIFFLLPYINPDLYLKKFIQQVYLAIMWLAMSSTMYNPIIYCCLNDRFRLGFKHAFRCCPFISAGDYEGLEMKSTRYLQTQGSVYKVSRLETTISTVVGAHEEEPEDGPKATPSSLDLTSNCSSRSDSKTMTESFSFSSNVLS", "conditions": "cited from earlier work"}, "cellular growth": {"tested_on": "cellular growth", "assay": "cellular growth promoting activity (description)", "format": "cell-based"}, "full thickness wound": {"tested_on": "full thickness wound", "assay": "full thickness 7 mm punch wound in the back of rats, hyaluronic acid vehicle (FIG. 10)", "format": "in vivo", "conditions": "after 6 days, 16 rats, both wounds received hyaluronic acid vehicle", "from_the_text": "FIG. 10 represents the percent healing after 6 days for a full thickness wound in the back of 16 different rats. The initial wound size was a 7 mm punch wound. Each rat received two wounds, a control (no SP) and an SP treated wound. Both wounds received a hyaluronic acid vehicle.\nSupplemental growth factors have the ability to accelerate wound healing in a variety of experimental animal models (EE). This has even led to clinical trials. However, the human studies have not been as successful as the animal models. Due to the complexity of the interaction of different growth factors, it is likely that the right combination of different growth factors has not been explored."}, "NK1 and NK3 receptors": {"tested_on": "NK1 and NK3 receptors", "conditions": "rabbit iris; cited from earlier work"}}, "data": [{"compound": "7R,8R-(βMeF)2SP: Substance P analog with R-β-methylphenylalanine at positions 7 and 8", "values": [{"measurement": "biological activity relative to SP", "setting": "NK1 receptor [1]", "result": "the least active analog"}, {"measurement": "biological activity relative to SP", "setting": "NK1 receptor [1]; listed as 7R,8R-(β-MeF)2SP", "result": "diminish the biological activity by a factor of ten"}]}, {"compound": "7R,8S-(βMeF)2SP: Substance P analog with R-β-methylphenylalanine at position 7 and S- at position 8", "values": [{"measurement": "biological activity relative to SP", "setting": "NK1 receptor [1]", "result": "most active disubstituted SP analogs"}, {"measurement": "biological activity relative to SP", "setting": "NK1 receptor [1]; listed as 7R,8S-(β-MeF)2SP", "result": "enhance the activity"}]}, {"compound": "7R-(βMeF)SP: Substance P analog with R-β-methylphenylalanine at position 7", "values": [{"measurement": "biological activity relative to SP", "setting": "NK1 receptor [1]", "result": "equipotent to SP"}]}, {"compound": "7S,8R-(βMeF)2SP: Substance P analog with S-β-methylphenylalanine at position 7 and R- at position 8", "values": [{"measurement": "biological activity relative to SP", "setting": "NK1 receptor [1]", "result": "equipotent (to SP)"}, {"measurement": "biological activity relative to SP", "setting": "NK1 receptor [1]; listed as 7S,8R-(β-MeF)2SP", "result": "do not significantly alter the activity"}]}, {"compound": "7S,8S-(βMeF)2SP: Substance P analog with S-β-methylphenylalanine at positions 7 and 8", "values": [{"measurement": "biological activity relative to SP", "setting": "NK1 receptor [1]", "result": "most active disubstituted SP analogs"}, {"measurement": "biological activity relative to SP", "setting": "NK1 receptor [1]; listed as 7S,8S-(β-MeF)2SP", "result": "enhance the activity"}]}, {"compound": "7S-(βMeF)SP: Substance P analog with S-β-methylphenylalanine at position 7", "values": [{"measurement": "biological activity relative to SP", "setting": "NK1 receptor [1]", "result": "slightly more active than SP"}]}, {"compound": "8R-(βMeF)SP: Substance P analog with R-β-methylphenylalanine at position 8", "values": [{"measurement": "biological activity relative to SP", "setting": "NK1 receptor [1]", "result": "the most active SP analog"}, {"measurement": "biological activity relative to SP", "setting": "NK1 receptor [1]; listed as R-β-MeF into position 8 of SP", "result": "four-fold enhancement"}]}, {"compound": "8S-(βMeF)SP: Substance P analog with S-β-methylphenylalanine at position 8", "values": [{"measurement": "biological activity relative to SP", "setting": "NK1 receptor [1]", "result": "the least active of the monosubstituted analogs"}, {"measurement": "biological activity relative to SP", "setting": "NK1 receptor [1]; listed as S-β-MeF into position 8 of SP", "result": "ten-fold reduction"}]}, {"compound": "NCC[Se][Se]CCN", "note": "[selenocystamine, reference compound]", "values": [{"measurement": "percentage decrease of the wound area versus control wounds (paired T-test)", "setting": "[2]; day 6", "result": "not significantly higher than the control"}, {"measurement": "% decrease in wound size (wound area day 6 compared with day 0)", "setting": "[2]; day 6", "result": "31.8±18.3", "unit": "%"}, {"measurement": "wound enlargement (one wound of the group)", "setting": "[2]; six day period", "result": 2.9, "unit": "%"}]}, {"compound": "QFFGLM (SEQ ID NO:8) (listed as Homo sapiens) [SP6-11, reference compound]", "values": [{"measurement": "activity as % of that found for the whole SP molecule", "setting": "NK1 receptor [3]", "result": "50-90%"}, {"measurement": "cellular growth promoting activity", "setting": "cellular growth", "result": "active in promoting cellular growth"}]}, {"compound": "RPKPQQFFGLM (SEQ ID NO:1) [SP]", "values": [{"measurement": "control wounds showing more percent healing than the SP wound on the same rat", "setting": "full thickness wound", "result": "4 out of 16"}, {"measurement": "percentage decrease of the wound area versus control wounds (paired T-test)", "setting": "[2]; day 6", "result": "significantly higher than that of the control wounds"}, {"measurement": "% decrease in wound size (wound area day 6 compared with day 0)", "setting": "[2]; day 6", "result": "41.6±15.0", "unit": "%"}, {"measurement": "wound with the greatest decrease in size", "setting": "[2]; single wound of the treatment group, day 6", "result": 66.7, "unit": "%"}, {"measurement": "factor by which binding to NK1 and NK3 receptors differs", "setting": "NK1 and NK3 receptors", "result": "over 20"}, {"measurement": "doses producing a rapid increase in the force of contraction", "setting": "NK1 receptor [1]; rabbit iris sphincter muscle", "result": "greater than 10^−10 M"}, {"measurement": "maximum effective dose", "setting": "NK1 receptor [1]; rabbit iris sphincter muscle", "result": "10^−7 M"}]}, {"compound": "SEQ ID NO:9: substitution peptide where norleucine has been substituted for the C-terminus methionine in Substance P (RPKPQQFFGLX; (11)..(11) Norleucine; listed as Homo sapiens)", "values": [{"measurement": "cellular growth promoting activity", "setting": "cellular growth", "result": "enhanced activity under at least some treatment conditions"}]}]}
